In patent US10219516B2, “Molecules having pesticidal utility, and intermediates, compositions, and processes, related thereto” (priority 2015, dated 2019):

Experiments:
Format in all cases: in vivo
[1] = system: Beet Armyworm (Spodoptera exigua, LAPHEG); assay: Bioassay on Beet Armyworm (BAW), 128-well diet tray assay; settings: Species BAW (Beet Armyworm), read-out: BAW (Biological Results, rating)
Summary of the method: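 Artificial diet surface-treated with 50 μg/cm^2 test molecule in 90:10 acetone-water, dried, then infested with one to five second instar larvae per well. Held covered and vented at 25° C., 14:10 light-dark for five to seven days; percent mortality recorded per well and averaged over eight wells.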

[2] = system: Green Peach Aphid (Myzus persicae, MYZUPE); assay: Bioassay on Green Peach Aphid (GPA), foliar spray on infested cabbage seedlings; settings: foliar, 72 h, Species GPA (Green Peach Aphid), read-out: GPA (Biological Results, rating)
Protocol: Certain molecules disclosed in this document were tested against GPA using procedures described in the following example. In the reporting of the results, the “GPA & YFM Rating Table” was used (See Table Section).
Cabbage seedlings grown in 3-inch pots, with 2-3 small (3-5 cm) true leaves, were used as test substrate. The seedlings were infested with 20-50 GPA (wingless adult and nymph stages) one day prior to chemical application. Four pots with individual seedlings were used for each treatment. Test molecules (2 mg) were dissolved in 2 mL of acetone/methanol (1:1) solvent, forming stock solutions of 1000 ppm test molecule. The stock solutions were diluted 5× with 0.025% Tween 20 in water to obtain the solution at 200 ppm test molecule. A hand-held aspirator-type sprayer was used for spraying a solution to both sides of […] leaves until runoff. Reference plants (solvent check) were sprayed with the diluent only containing 20% by volume of acetone/methanol (1:1) solvent. Treated plants were held in a holding room for three days at approximately 25° C. and ambient relative humidity (RH) prior to grading. Evaluation was conducted by counting the number of live aphids per plant under a microscope. Percent control was measured using Abbott's correction formula (W. S. Abbott, “A Method of Computing the Effectiveness of an Insecticide” 3. Econ. Entomol. 18 (1925), pp. 265-267) as follows. Corrected % Control=100*(X−Y)/X where X=No. of live aphids on solvent check plants and Y=No. of live aphids on treated plants. The results are indicated in the table entitled “Table ABC: Biological Results” (See Table Section).

[3] = system: Cabbage Looper (Trichoplusia ni, TRIPNI); assay: Bioassay on Cabbage Looper (CL), 128-well diet tray assay; settings: Trichoplusia ni; Species CL (Cabbage Looper); read-out: CL (Biological Results, rating)
Summary of the method: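 Test molecule is dissolved in 90:10 acetone-water and applied at 50 μg/cm^2 onto artificial diet, then dried. One to five second-instar larvae go into each of eight wells. Trays, sealed but vented, stay at 25° C., 14:10 light-dark, five to seven days, after which mortality is averaged.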

[4] = system: Yellow Fever Mosquito (Aedes aegypti, AEDSAE); assay: Bioassay on Yellow Fever Mosquito (YFM), 96-well plate larval assay; settings: Species YFM (Yellow Fever Mosquito)
Summary of the method: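 Aedes aegypti larvae (about 1 day old) in liver-powder water were added to plates dispensed from DMSO master plates (4000 ppm stock) diluted with 90:10 water/acetone; six replicate plates per master. Lidded plates were held at room temperature for 3 days, then each well was scored for mortality.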

## O=C(Nc1ccc(F)c(F)c1)c1cc(NC(=O)[C@H]2[C@H](c3cc(Cl)cc(Cl)c3)C2(Cl)Cl)ccc1Cl (relative stereo) [F23, trans-2-Chloro-5-(2,2-dichloro-3-(3,5-dichlorophenyl)cyclopropane-1-carboxamido)-N-(3,4-difluorophenyl)benzamide]
[1]
  pest or weed control at 50 µg/cm2: 50 to 100%
[2]
  pest or weed control at 200 µg/mL: 0 to 80%
[3]
  pest or weed control at 50 µg/cm2: 50 to 100%
[4]
  YFM (Biological Results, rating): A (80-100)

## O=C(Nc1c(F)cc(F)cc1F)c1cc(NC(=O)[C@H]2[C@H](c3cc(Cl)cc(Cl)c3)C2(Cl)Cl)ccc1Cl (relative stereo) [F24, trans-2-Chloro-5-(2,2-dichloro-3-(3,5-dichlorophenyl)cyclopropane-1-carboxamido)-N-(2,4,6-trifluorophenyl)benzamide]
[1]
  pest or weed control at 50 µg/cm2: 50 to 100%
[2]
  pest or weed control at 200 µg/mL: 80 to 100%
[3]
  pest or weed control at 50 µg/cm2: 50 to 100%
[4]
  YFM (Biological Results, rating): A (80-100)

## O=C(Nc1c(F)cccc1F)c1cc(NC(=O)[C@H]2[C@H](c3cc(Cl)cc(Cl)c3)C2(Cl)Cl)ccc1Cl (relative stereo) [F25, trans-2-Chloro-5-(2,2-dichloro-3-(3,5-dichlorophenyl)cyclopropane-1-carboxamido)-N-(2,6-difluorophenyl)benzamide]
[1]
  pest or weed control at 50 µg/cm2: 50 to 100%
[2]
  pest or weed control at 200 µg/mL: 80 to 100%
[3]
  pest or weed control at 50 µg/cm2: 50 to 100%
[4]
  YFM (Biological Results, rating): A (80-100)

## O=C(Nc1ccncc1)c1cc(NC(=O)[C@H]2[C@H](c3cc(Cl)cc(Cl)c3)C2(Cl)Cl)ccc1Cl (relative stereo) [F26, trans-2-Chloro-5-(2,2-dichloro-3-(3,5-dichlorophenyl)cyclopropane-1-carboxamido)-N-(pyridin-4-yl)benzamide]
[1]
  pest or weed control at 50 µg/cm2: 50 to 100%
[2]
  pest or weed control at 200 µg/mL: 0 to 80%
[3]
  pest or weed control at 50 µg/cm2: 50 to 100%
[4]
  YFM (Biological Results, rating): A (80-100)

## O=C(Nc1cccnc1)c1cc(NC(=O)[C@H]2[C@H](c3cc(Cl)cc(Cl)c3)C2(Cl)Cl)ccc1Cl (relative stereo) [F27, trans-2-Chloro-5-(2,2-dichloro-3-(3,5-dichlorophenyl)cyclopropane-1-carboxamido)-N-(pyridin-3-yl)benzamide]
[1]
  pest or weed control at 50 µg/cm2: 50 to 100%
[2]
  pest or weed control at 200 µg/mL: 0 to 80%
[3]
  pest or weed control at 50 µg/cm2: 50 to 100%
[4]
  YFM (Biological Results, rating): A (80-100)

## O=C(Nc1ccc(F)cc1)c1cc(NC(=O)[C@H]2[C@H](c3ccc(Cl)c(Cl)c3)C2(Cl)Cl)ccc1F (relative stereo) [F28, trans-5-(2,2-Dichloro-3-(3,4-dichlorophenyl)cyclopropane-1-carboxamido)-2-fluoro-N-(4-fluorophenyl)benzamide]
[1]
  pest or weed control at 50 µg/cm2: 50 to 100%
[2]
  pest or weed control at 200 µg/mL: 80 to 100%
[3]
  pest or weed control at 50 µg/cm2: 50 to 100%
[4]
  YFM (Biological Results, rating): A (80-100)

## O=C(Nc1ccc(F)cc1)c1cc(NC(=O)[C@H]2[C@H](c3cc(Cl)c(Cl)c(Cl)c3)C2(Cl)Cl)ccc1F (relative stereo) [F29, trans-5-(2,2-Dichloro-3-(3,4,5-trichlorophenyl)cyclopropane-1-carboxamido)-2-fluoro-N-(4-fluorophenyl)benzamide]
[1]
  pest or weed control at 50 µg/cm2: 50 to 100%
[2]
  pest or weed control at 200 µg/mL: 0 to 80%
[3]
  pest or weed control at 50 µg/cm2: 50 to 100%
[4]
  YFM (Biological Results, rating): A (80-100)

## COc1c(NC(=O)[C@H]2[C@H](c3cc(Cl)cc(Cl)c3)C2(Cl)Cl)cccc1C(=O)Nc1ccc(F)cc1 (relative stereo) [F30, trans-3-(2,2-Dichloro-3-(3,5-dichlorophenyl)cyclopropane-1-carboxamido)-N-(4-fluorophenyl)-2-methoxybenzamide]
[1]
  pest or weed control at 50 µg/cm2: 50 to 100%
[2]
  pest or weed control at 200 µg/mL: 0 to 80%
[3]
  pest or weed control at 50 µg/cm2: 50 to 100%
[4]
  YFM (Biological Results, rating): A (80-100)

## O=C(Nc1cccnc1Cl)c1cc(NC(=O)[C@H]2[C@H](c3cc(Cl)cc(Cl)c3)C2(Cl)Cl)ccc1Cl (relative stereo) [F31, trans-2-Chloro-N-(2-chloropyridin-3-yl)-5-(2,2-dichloro-3-(3,5-dichlorophenyl)cyclopropane-1-carboxamido)benzamide]
[1]
  pest or weed control at 50 µg/cm2: 50 to 100%
[2]
  pest or weed control at 200 µg/mL: 80 to 100%
[3]
  pest or weed control at 50 µg/cm2: 50 to 100%
[4]
  YFM (Biological Results, rating): A (80-100)

## N#Cc1ccc(NC(=O)c2cc(NC(=O)[C@H]3[C@H](c4cc(Cl)cc(Cl)c4)C3(Cl)Cl)ccc2Cl)cn1 (relative stereo) [F33, trans-2-Chloro-N-(6-cyanopyridin-3-yl)-5-(2,2-dichloro-3-(3,5-dichlorophenyl)cyclopropane-1-carboxamido)benzamide]
[1]
  pest or weed control at 50 µg/cm2: 50 to 100%
[2]
  pest or weed control at 200 µg/mL: 0 to 80%
[3]
  pest or weed control at 50 µg/cm2: 50 to 100%
[4]
  YFM (Biological Results, rating): A (80-100)

## CN(C(=O)c1cc(NC(=O)[C@H]2[C@H](c3cc(Cl)cc(Cl)c3)C2(Cl)Cl)ccc1Cl)c1cccc(F)c1 (relative stereo) [F34, trans-2-Chloro-5-(2,2-dichloro-3-(3,5-dichlorophenyl)cyclopropane-1-carboxamido)-N-(3-fluorophenyl)-N-methylbenzamide]
[1]
  pest or weed control at 50 µg/cm2: 50 to 100%
[2]
  pest or weed control at 200 µg/mL: 0 to 80%
[3]
  pest or weed control at 50 µg/cm2: 50 to 100%
[4]
  YFM (Biological Results, rating): A (80-100)

## CN(C(=O)c1cc(NC(=O)[C@H]2[C@H](c3cc(Cl)cc(Cl)c3)C2(Cl)Cl)ccc1Cl)c1ccccc1F (relative stereo) [F35, trans-2-Chloro-5-(2,2-dichloro-3-(3,5-dichlorophenyl)cyclopropane-1-carboxamido)-N-(2-fluorophenyl)-N-methylbenzamide]
[1]
  pest or weed control at 50 µg/cm2: 50 to 100%
[2]
  pest or weed control at 200 µg/mL: 80 to 100%
[3]
  pest or weed control at 50 µg/cm2: 50 to 100%
[4]
  YFM (Biological Results, rating): A (80-100)

## Cc1cc(C#N)ccc1NC(=O)c1cc(NC(=O)[C@H]2[C@H](c3cc(Cl)cc(Cl)c3)C2(Cl)Cl)ccc1Cl (relative stereo) [F36, trans-2-Chloro-N-(4-cyano-2-methylphenyl)-5-(2,2-dichloro-3-(3,5-dichlorophenyl)cyclopropane-1-carboxamido)benzamide]
[1]
  pest or weed control at 50 µg/cm2: 50 to 100%
[2]
  pest or weed control at 200 µg/mL: 0 to 80%
[3]
  pest or weed control at 50 µg/cm2: 50 to 100%
[4]
  YFM (Biological Results, rating): A (80-100)

## Cc1cc(F)ccc1NC(=O)c1cc(NC(=O)[C@H]2[C@H](c3cc(Cl)cc(Cl)c3)C2(Cl)Cl)ccc1Cl (relative stereo) [F37, trans-2-Chloro-5-(2,2-dichloro-3-(3,5-dichlorophenyl)cyclopropane-1-carboxamido)-N-(4-fluoro-2-methylphenyl)benzamide]
[1]
  pest or weed control at 50 µg/cm2: 50 to 100%
[2]
  pest or weed control at 200 µg/mL: 80 to 100%
[3]
  pest or weed control at 50 µg/cm2: 50 to 100%
[4]
  YFM (Biological Results, rating): A (80-100)

## O=C(Nc1ccccc1Cl)c1cc(NC(=O)[C@H]2[C@H](c3cc(Cl)cc(Cl)c3)C2(Cl)Cl)ccc1Cl (relative stereo) [F38, trans-2-Chloro-N-(2-chlorophenyl)-5-(2,2-dichloro-3-(3,5-dichlorophenyl)cyclopropane-1-carboxamido)benzamide]
[1]
  pest or weed control at 50 µg/cm2: 50 to 100%
[2]
  pest or weed control at 200 µg/mL: 80 to 100%
[3]
  pest or weed control at 50 µg/cm2: 50 to 100%
[4]
  YFM (Biological Results, rating): A (80-100)

## O=C(Nc1ccc(F)cc1F)c1cc(NC(=O)[C@H]2[C@H](c3ccc(Cl)c(Cl)c3)C2(Cl)Cl)ccc1Cl (relative stereo) [F39, trans-2-Chloro-5-(2,2-dichloro-3-(3,4-dichlorophenyl)cyclopropane-1-carboxamido)-N-(2,4-difluorophenyl)benzamide]
[1]
  pest or weed control at 50 µg/cm2: 50 to 100%
[2]
  pest or weed control at 200 µg/mL: 80 to 100%
[3]
  pest or weed control at 50 µg/cm2: 50 to 100%
[4]
  YFM (Biological Results, rating): A (80-100)

## O=C(Nc1ccc(F)cc1F)c1cc(NC(=O)[C@H]2[C@H](c3cc(Cl)c(Cl)c(Cl)c3)C2(Cl)Cl)ccc1Cl (relative stereo) [F40, trans-2-Chloro-5-(2,2-dichloro-3-(3,4,5-trichlorophenyl)cyclopropane-1-carboxamido)-N-(2,4-difluorophenyl)benzamide]
[1]
  pest or weed control at 50 µg/cm2: 50 to 100%
[2]
  pest or weed control at 200 µg/mL: 80 to 100%
[3]
  pest or weed control at 50 µg/cm2: 50 to 100%
[4]
  YFM (Biological Results, rating): B (More than 0-Less than 80)
